Consider 15 molecules from PMC11304049 (RSC Advances, 2024).

Several values for one entry are separate records, joined by “and”; a condition that tells them apart may be missing. Identical values can stand only once. Like-named read-outs stand apart in the source and are kept apart here.

One data set concerns the target T1, Falcipain-2 (Plasmodium falciparum, UniProt Q8I6U4).
T1 sequence (Q8I6U4 244-484): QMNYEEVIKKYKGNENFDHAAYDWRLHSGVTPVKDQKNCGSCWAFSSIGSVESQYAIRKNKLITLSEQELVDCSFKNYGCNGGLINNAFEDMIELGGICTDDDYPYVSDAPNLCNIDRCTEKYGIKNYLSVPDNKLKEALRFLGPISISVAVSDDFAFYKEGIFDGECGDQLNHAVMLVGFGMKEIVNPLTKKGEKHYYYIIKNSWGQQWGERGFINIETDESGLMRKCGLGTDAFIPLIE
Briefly: biochemical. The following applies: Falcipain-2 (IC50 μM), mean of triplicate.

Data set [1] is described as follows: Cytotoxicity by MTT assay, Vero cells. It is filed as cell-based. The following applies: African green monkey, Vero cells.
The subject of another data set is Vero cell. Briefly: Cytotoxicity by MTT assay, Vero cells. The format is cell-based. Particulars: for Selectivity index (SI) with Pf3D7 strain, Vero cell: cytotoxicity IC50 / Pf3D7 IC50; for Selectivity index (SI) with PfW2 strain, Vero cell: cytotoxicity IC50 / PfW2 IC50.
For another data set, the target named is T2, Falcipain-3 (Plasmodium falciparum, UniProt Q8IIL0).
T2 sequence (Q8IIL0 243-492): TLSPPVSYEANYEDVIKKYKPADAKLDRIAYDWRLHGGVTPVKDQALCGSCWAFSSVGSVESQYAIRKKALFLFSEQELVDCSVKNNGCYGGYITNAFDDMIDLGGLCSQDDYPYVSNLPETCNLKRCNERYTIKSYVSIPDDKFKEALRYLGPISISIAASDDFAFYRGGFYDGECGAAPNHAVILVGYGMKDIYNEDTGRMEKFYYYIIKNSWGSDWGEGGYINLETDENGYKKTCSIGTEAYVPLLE
Briefly: biochemical.

Data set [2] relates to PfW2. Briefly: microbe, parasite or virus in culture. The format is cell-based, Plasmodium falciparum. Particulars: read-out: PfW2 IC50.
For data set [3], the system named is Pf3D7. Briefly: microbe, parasite or virus in culture. The following applies: Plasmodium falciparum, 3D7, read-out: Pf3D7 IC50. The format is cell-based.
The test system of data set [4] is early ring stage 3D7 parasite of P. falciparum. Briefly: Impact on parasite growth and morphology. The format is cell-based, Plasmodium falciparum. The following applies: ring-stage parasites, 3 × IC50 concentration, smears after 24 and 48 hours.
The nature of data set [5]: Cytotoxicity by MTT assay, lung cancer A5489 cell line. The format is cell-based, human. Particulars: human, lung cancer A5489 cell line.
Data set [6] has as its system lung cancer A5489 cell line. Described as above. The format is cell-based, human. The following applies: for Selectivity index (SI) with Pf3D7 strain, A5489: cytotoxicity IC50 / Pf3D7 IC50; for Selectivity index (SI) with PfW2 strain, A5489: cytotoxicity IC50 / PfW2 IC50.
Data set [7] concerns Pf3D7. Particulars: read-out: Pf3D7 IC50; reference drugs, reported earlier; cited from earlier work.
Data set [8] has as its system PfW2. Particulars: read-out: PfW2 IC50; reference drugs, reported earlier; cited from earlier work.

With `O=C1CC2(CCN(c3cc(N4CCN(S(=O)(=O)c5cccc(C(F)(F)F)c5)CC4)ncn3)CC2)Oc2ccccc21` [SZ14, 1′-(6-(4-((3-(Trifluoromethyl)phenyl)sulfonyl)piperazin-1-yl)pyrimidin-4-yl)spiro [chromane-2,4′-piperidin]-4-one], the IC50 is 4.1 ± 1.1 µM against Falcipain-2; 5.4 ± 0.7 µM against Falcipain-3; 2.84 µM in the data set on PfW2 [2] (Plasmodium falciparum); 3.12 ± 0.14 µM in the data set on PfW2 [2]; 2.84 ± 0.21 µM with Pf3D7 [3]. In data set [1], this molecule returned an IC50 at 72 h above 1000 µM. Further, the “Selectivity index (SI) with Pf3D7 strain, Vero cell” value in the data set with Vero cell amounted to 352.11. Also, in the data set on Vero cell, the “Selectivity index (SI) with PfW2 strain, Vero cell” value is reported as 320.51. Also, the “Effect on erythrocytic growth of the parasite” value (“Effect on erythrocytic growth” below) in data set [4] is given as “stopped at the early trophozoite stage”. In data set [5], this molecule came in with an IC50 at 24 h of 66.2 ± 2.14 µM. Besides, the “Selectivity index (SI) with Pf3D7 strain, A5489” value in data set [6] came out at 23.31. Besides, in data set [6], the “Selectivity index (SI) with PfW2 strain, A5489” value was determined as 21.22.
Take `O=C1CC2(CCN(c3cc(N4CCN(S(=O)(=O)c5ccc([N+](=O)[O-])cc5)CC4)ncn3)CC2)Oc2ccccc21` [SZ1, 1′-(6-(4-((4-Nitrophenyl)sulfonyl)piperazin-1-yl)pyrimidin-4-yl)spiro[chromane-2,4′-piperidin]-4-one]: the values for the concentration for half-maximal inhibition (IC50) in the data set with PfW2 [2] (Plasmodium falciparum), in the data set on PfW2 [2] and in the data set on Pf3D7 [3] were above 14 µM, above 15 µM and 14.8 ± 0.24 µM, respectively.
On the same counts, the results for `O=C1CC2(CCN(c3cc(N4CCN(S(=O)(=O)c5ccccc5[N+](=O)[O-])CC4)ncn3)CC2)Oc2ccccc21` [SZ2, 1′-(6-(4-((2-Nitrophenyl)sulfonyl)piperazin-1-yl)pyrimidin-4-yl)spiro [chromane-2,4′-piperidin]-4-one] are above 14 µM, above 15 µM and 18.1 ± 0.43 µM.
`O=C1CC2(CCN(c3cc(N4CCN(S(=O)(=O)c5ccc(F)c(F)c5)CC4)ncn3)CC2)Oc2ccccc21` [SZ11, 1′-(6-(4-((3,4-Difluorophenyl)sulfonyl)piperazin-1-yl)pyrimidin-4-yl)spiro [chromane-2,4′-piperidin]-4-one]: the IC50 at Falcipain-2 came out at 6.5 ± 1.6 µM; against Falcipain-3, 8 ± 1.4 µM; in the data set on PfW2 [2] (Plasmodium falciparum), 5.58 ± 0.19 µM; with Pf3D7 [3], 3.92 ± 0.25 µM. This molecule also had an IC50 at 72 h in data set [1] above 1000 µM. Also, in the data set with Vero cell, the “Selectivity index (SI) with Pf3D7 strain, Vero cell” value is recorded as 255.10. Moreover, the “Selectivity index (SI) with PfW2 strain, Vero cell” value with Vero cell is 179.21. In addition, the “Effect on erythrocytic growth” value in data set [4] is given as “stopped at the early trophozoite stage”. This molecule displayed an IC50 at 24 h in data set [5] of 94.2 ± 2.97 µM. The “Selectivity index (SI) with Pf3D7 strain, A5489” value in data set [6] is listed as 24.01. In [6], the “Selectivity index (SI) with PfW2 strain, A5489” value came out at 16.87.
`O=C1CC2(CCN(c3cc(N4CCN(S(=O)(=O)c5cc(F)cc(F)c5)CC4)ncn3)CC2)Oc2ccccc21` [SZ10, 1′-(6-(4-((3,5-Difluorophenyl)sulfonyl)piperazin-1-yl)pyrimidin-4-yl) spiro [chromane-2,4′-piperidin]-4-one]: the IC50 on Falcipain-2 came to 7.2 ± 1.8 µM; against Falcipain-3, 8.8 ± 1.5 µM; in the data set on PfW2 [2] (Plasmodium falciparum), 6.67 ± 0.16 µM; with Pf3D7 [3] it was 4.55 ± 0.34 µM. This molecule had an IC50 at 72 h in data set [1] above 1000 µM. For the same molecule, in the data set with Vero cell, the “Selectivity index (SI) with Pf3D7 strain, Vero cell” value is given as 219.79. Also, the “Selectivity index (SI) with PfW2 strain, Vero cell” value with Vero cell came to 149.92. Moreover, the “Effect on erythrocytic growth” value in data set [4] was “stopped at the early trophozoite stage”. Also, the IC50 at 24 h in data set [5] is 122 ± 3.39 µM. Also, in data set [6], the “Selectivity index (SI) with Pf3D7 strain, A5489” value was determined as 26.91. The “Selectivity index (SI) with PfW2 strain, A5489” value in data set [6] worked out at 18.35.
For the molecule `CCN(CC)CCCC(C)Nc1ccnc2cc(Cl)ccc12` (stereo not drawn) [CQ, Chloroquine], the values for the half-maximal inhibitory concentration (IC50) in the data set on Pf3D7 [7] and in the data set with PfW2 [8] were 0.018 ± 0.002 µM and 0.051 ± 0.001 µM, respectively.
Regarding `CCc1nc(N)nc(N)c1-c1ccc(Cl)cc1` [PYR, pyrimethamine], the IC50 in the data set on Pf3D7 [7] is 0.015 ± 0.0002 µM; in the data set on PfW2 [8], 129 ± 11.3 µM.
In the case of `O=C1CC2(CCN(c3cc(N4CCN(S(=O)(=O)c5ccc6ccccc6c5)CC4)ncn3)CC2)Oc2ccccc21` [SZ3, 1′-(6-(4-(Naphthalen-2-ylsulfonyl)piperazin-1-yl)pyrimidin-4-yl)spiro[chromane-2,4′-piperidin]-4-one], the IC50 in the data set with PfW2 [2] (Plasmodium falciparum) is above 15 µM; in the data set with Pf3D7 [3] it was 25.2 ± 0.35 µM.
On the same counts, the results for `N#Cc1ccc(S(=O)(=O)N2CCN(c3cc(N4CCC5(CC4)CC(=O)c4ccccc4O5)ncn3)CC2)cc1` [SZ4, 4-((4-(6-(4-Oxospiro[chromane-2,4′-piperidin]-1′-yl)pyrimidin-4-yl)piperazin-1-yl)sulfonyl)benzonitrile] are 14.4 ± 0.16 µM and 6.33 ± 0.29 µM.
On the same counts, the results for `O=C1CC2(CCN(c3cc(N4CCN(S(=O)(=O)N5CCOCC5)CC4)ncn3)CC2)Oc2ccccc21` [SZ13, 1′-(6-(4-(Morpholinosulfonyl)piperazin-1-yl)pyrimidin-4-yl) spiro[chromane-2,4′-piperidin]-4-one] are above 15 µM and 22.2 ± 0.36 µM.
On the same counts, the results for `O=C1CC2(CCN(c3cc(N4CCN(S(=O)(=O)c5cccs5)CC4)ncn3)CC2)Oc2ccccc21` [SZ5, 1′-(6-(4-(Thiophen-2-ylsulfonyl)piperazin-1-yl)pyrimidin-4-yl) spiro[chromane-2,4′-piperidin]-4-one] are 13.3 ± 0.19 µM and 7.45 ± 0.37 µM.
As to `O=C1CC2(CCN(c3cc(N4CCN(S(=O)(=O)c5cccnc5)CC4)ncn3)CC2)Oc2ccccc21` [SZ7, 1′-(6-(4-(Pyridin-3-ylsulfonyl)piperazin-1-yl)pyrimidin-4-yl)spiro[chromane-2,4′-piperidin]-4-one], the figures for the IC50 with PfW2 [2] (Plasmodium falciparum) and with Pf3D7 [3] were 5.64 ± 0.18 µM and 7.97 ± 0.33 µM, respectively.
As to `Cc1noc(C)c1S(=O)(=O)N1CCN(c2cc(N3CCC4(CC3)CC(=O)c3ccccc3O4)ncn2)CC1` [SZ12, 1′-(6-(4-((3,5-Dimethylisoxazol-4-yl)sulfonyl)piperazin-1-yl)pyrimidin-4-yl) spiro[chromane-2,4′-piperidin]-4-one], the IC50 in the data set on PfW2 [2] (Plasmodium falciparum) was above 15 µM; with Pf3D7 [3], 8.46 ± 0.28 µM.
For `O=C1CC2(CCN(c3cc(N4CCN(S(=O)(=O)c5ccccc5F)CC4)ncn3)CC2)Oc2ccccc21` [SZ8, 1′-(6-(4-((2-Fluorophenyl)sulfonyl)piperazin-1-yl)pyrimidin-4-yl)spiro[chromane-2,4′-piperidin]-4-one] the same measures were 8.12 ± 0.37 µM and 5.61 ± 0.42 µM.
With `O=C1CC2(CCN(c3cc(N4CCN(S(=O)(=O)c5ccc(F)cc5)CC4)ncn3)CC2)Oc2ccccc21` [SZ9, 1′-(6-(4-((4-Fluorophenyl)sulfonyl)piperazin-1-yl)pyrimidin-4-yl)spiro[chromane-2,4′-piperidin]-4-one], the IC50 at Falcipain-2 is 5.4 µM and 4.9 µM; at Falcipain-3, 6.3 ± 1.2 µM; in the data set on PfW2 [2] (Plasmodium falciparum), 3.89 ± 0.23 µM; in the data set on Pf3D7 [3], 3.22 ± 0.07 µM. For the same molecule, the IC50 at 72 h in data set [1] is above 1000 µM. The “Selectivity index (SI) with Pf3D7 strain, Vero cell” value with Vero cell was 310.55. Moreover, the “Selectivity index (SI) with PfW2 strain, Vero cell” value in the data set on Vero cell is 257.06. In data set [4], the “Effect on erythrocytic growth” value was “stopped at the early trophozoite stage”. Further, half-maximal inhibition in data set [5] (IC50 at 24 h) was put at 78.5 ± 2.76 µM. In data set [6], the “Selectivity index (SI) with Pf3D7 strain, A5489” value is given as 24.36. For the same molecule, in data set [6], the “Selectivity index (SI) with PfW2 strain, A5489” value amounted to 20.17.
